The test system of data set [1] is K562 erytiroleukemia cells. Particulars: Yan et al., 1995; cited from earlier work.
Data set [2] has as its system chronic myelogenous leukemia. Particulars: previously untreated chronic myelogenous leukemia; cited from earlier work.
Data set [3] has as its system MCF-7-AdrR cells. In words: Cell proliferation (MTS) assay: adriamycin toxicity and chemosensitization. The text has this: FIG. 15A and FIG. 15B. […] FIG. 15B: Glycosylceramide levels in MDR Cells following drug treatment. […] In order to avoid differences in [^3 H]glycosylceramide values which account for cell death, the same amount of total radioactive lipid from each sample was applied to TLC separation.
FIG. 16A and FIG. 16B. […] FIG. 16A: Effect of PPMP on cellular glycosylceramide levels. […] [^3 H]Glycosylceramide was quantitated as described in the legend to FIG. 9.
Vehicle (acetone, ethanol) was always added to control (minus drug) wells. The cytotoxic activity of a drug was determined using the Promega CellTiter 96™ AQueous MTS cell proliferation assay kit. Each experimental point was performed in six replicates. MTS/PMS solution (20 μl/well) was aliquoted into all wells, and the cells were incubated for 2-3 h, or until an O.D. of 0.9-1.0 was obtained as a highest reading. Thereafter, absorbence at 490 nm was recorded using an ELISA plate reader (Molecular Devices, San Diego, Calif.).

For data set [4] the following is noted: cited from earlier work.
Data set [5] relates to glycosylceramide synthesis in MCF-7-AdrR cells. In words: Glycosylceramide levels in MDR cells following drug treatment, [3H]serine 48 h. It is filed as cell-based. Conditions: read-out: diminution in glycosylceramide formation, adriamycin alone.
In data set [6] the test system is OVCAR-3 (MDR ovarian carcinoma). Particulars: clinically relevant concentrations (Rogan et al., 1984); cited from earlier work.
Data set [7] deals with P388 and U937 cells. Particulars: Bose et al., 1995; cited from earlier work.
For data set [8], the system named is certain animal tumors. Particulars: in vivo; cited from earlier work.
The subject of data set [9] is MCF-7-doxorubicin resistant cells. Conditions: Sachs et al., 1995; cited from earlier work.
For data set [10], the system named is PKC. Conditions: Sachs et al., 1995; cited from earlier work.
The test system of data set [11] is MCF-7-AdrR cells. In words: Metabolism of sphinganine, MCF-7-AdrR cells (TLC charring). The data set is classed as cell-based. Particulars: 5.0 μM sphinganine:BSA, FIG. 4. The protocol:
(§1) FIG. 4. Metabolism of sphinganine by MCF-7-wt and MCF-7-AdrR cells. Cells, in 100×20 mm culture dishes, were incubated with 5.0 μM sphinganine:BSA (prepared at a 1:1 molar ratio) for the times indicated. Lipids were extracted, a 100 μg lipid aliquot of each sample was resolved by TLC in solvent system II, and the TLC was charred as described in Example I. The data shown are representative of two independent experiments which gave similar results.
(§2) Lipid Mass Analysis--Cell lipids were analyzed by TLC separation and charring of the chromatogram. Briefly, total cellular lipids were extracted by the method of Bligh and Dyer (1959), and equal aliquots (by weight) from each sample were spotted on TLC plates. The plates were developed using solvent system I or II (see below), air-dried for 1 h and sprayed using a 35% solution of sulfuric acid in water. The lipids were charred by heating in an oven at 180° C. for 30 min, and resulting black bands were visualized and photographed. Bands can be further quantitated by photodensitometric scanning.

Data set [12] deals with MCF-7-wt cells. In words: Metabolism of sphinganine, MCF-7-wt cells (TLC charring). It is filed as cell-based. Particulars: 5.0 μM sphinganine:BSA, FIG. 4. As for the experimental part: as §1, §2
For data set [13] the following is noted: in vivo; cited from earlier work.
Data set [14] has as its system lymphomas, particularly Hodgkin's disease. Conditions: cited from earlier work.

Entries after “also recorded” stand apart in the source; their conditions may differ. Counter-ions that a name gives are not always drawn. Like-named read-outs stand apart in the source and are kept apart here.

On to `Cc1cn([C@H]2C[C@H](N=[N+]=[N-])[C@@H](CO)O2)c(=O)[nH]c1=O` [3'-azidothymidine], for which the “sphingoglycolipid metabolism (in words)” value in [1] is on record as “altered sphingoglycolipid metabolism”.

Consider `CS(=O)(=O)OCCCCOS(C)(=O)=O` [Busulfan, 1,4-butanediol dimethanesulfonate], for which the hematologic remission entry in data set [2] is “Approximately 90 % of adults”.

As for `COc1cccc2c1C(=O)c1c(O)c3c(c(O)c1C2=O)C[C@@](O)(C(=O)CO)C[C@@H]3O[C@H]1C[C@H](N)[C@H](O)[C@H](C)O1` [adriamycin, 5,12-Naphthacenedione, (8s-cis)-10-[(3-amino-2,3,6-trideoxy-a-L-lyxo-hexopyranosyl)oxy]-7,8,9,10-tetrahydro-6,8,11-trihydroxy-8-(hydroxyacetyl)-1-methoxy-hydrochloride], the “cell death, adriamycin in the presence of tamoxifen” value in data set [3] (5 μM adriamycin + 5.0 μM tamoxifen, 72 h, FIG. 15A) is on record as 60%. The cytotoxicity at 5 µM in [3] (Homo sapiens, 72 h, read-out: cell death, adriamycin alone (maximal cytotoxic effect)) turned out to be 28%. Besides, the “effect of the substance alone on cell survival (in words)” value in data set [3] (MCF-7-AdrR, alone) was “minor effect; also recorded: largely without influence”. Besides, the elimination half-life entry in [4] (in vivo, iv) was “about 30 hr”. For the same compound, in data set [4] (in vivo), the “excreted into the urine” value is given as “a few percent”. Moreover, the “absorption (in words)” value in data set [4] (oral or unspecified) was “absorbed poorly”. Moreover, in data set [5], the inhibition at 2.5 µM was found to be 17%. The “resistance of OVCAR-3 to the drug (in words)” value in data set [6] was “resistant”.

For `COc1cccc2c1C(=O)c1c(O)c3c(c(O)c1C2=O)C[C@@](O)(C(C)=O)C[C@@H]3O[C@H]1C[C@H](N)[C@H](O)[C@H](C)O1` [daunorubicin, 5,12-Naphthacenedione, (8S-cis)-8-acetyl-10-[(3-amino-2,3,6-trideoxy-a-L-lyxo-hexanopyranosyl)oxy]-7,8,9,10-tetrahydro-6,8,11-trihydroxy-10-methoxy-, hydrochloride], in data set [4] (in vivo, iv), the distribution half-life was 0.75 h, the elimination half-life result is “about 19 hr” and the “secreted into the bile” value was about 40%. Also, in data set [4] (in vivo, po), the “absorption (in words)” value was “poor”. The “ceramide elevation (in words)” value in data set [7] was “stimulates ceramide elevation”.

On to `N[C@H](Cc1ccc(N(CCCl)CCCl)cc1)C(=O)O` [medphalan], for which the “activity against certain animal tumors relative to L-isomer (in words)” value in data set [8] is given as “less active”.

For `CCCCCCCCCCCCCCC[C@H](O)[C@@H](N)CO` [safingol], in data set [9], the “reversal of MDR (in words)” value is given as “reversal of MDR”. The “inhibition of PKC activity (in words)” value in data set [10] was “inhibition of PKC activity”.

With `CCCCCCCCCCCCCCC[C@@H](O)[C@@H](N)CO` [sphinganine], the “glycosylceramide (lipid-1 and -2) synthesis/mass on sphinganine supplement, MCF-7-AdrR (in words)” value in data set [11] is recorded as “accelerated synthesis; also recorded: strikingly more pronounced”. Also, in data set [12], the “synthesis of lipid X, MCF-7-wt (in words)” value was “synthesis of lipid X increased”.

For `CC[C@]1(O)C[C@@H]2CN(CCc3c([nH]c4ccccc34)[C@@](C(=O)OC)(c3cc4c(cc3OC)N(C)[C@H]3[C@@](O)(C(=O)OC)[C@H](OC(C)=O)[C@]5(CC)C=CCN6CC[C@]43[C@@H]65)C2)C1` [vinblastine], the “tolerability / toxicity (in words)” value in [13] is “painful irritation and ulceration”. Further, in [4] (in vivo, iv), the “half-life of disappearance from plasma, first” value is given as “approximately 1 hours” and the “half-life of disappearance from plasma, second” value is about 20 h. Also, in data set [4] (in vivo), the maximum concentration (Cmax) is about 400 µM, the “distribution in blood cells (in words)” value is reported as “extensively concentrated in platelets” and the “plasma protein binding (in words)” value is reported as “bind to plasma proteins”. The significant improvement in data set [14] is 50 to 90 % of cases.

A word on the Cmax: it is the maximum level reached in the sampled fluid or tissue.
